Laboratory results: patent US20240376111A1, “COMPOSITIONS AND METHODS OF USING THE SAME FOR TREATMENT OF NEURODEGENERATIVE AND MITOCHONDRIAL DISEASE” (Mitokinin, Inc., priority 2021, published 2024)
Where “and” joins values, the source holds several entries; their conditions need not be identical. Equal values may be shown once. Read-outs that look alike come from different tables or passages of the source.

Key:
[1] = test system: HeLa cells expressing mt-Keima and YFP-Parkin (HeLa MKYP); test: Human mt-Keima mitophagy assay; type: cell-based; details: Homo sapiens
Experimental: Briefly, HeLa cells expressing mt-Keima and YFP-Parkin (HeLa MKYP) were plated at 10,000 cells/well in 96 well plates along with compounds at various concentrations. Following 16 hrs of incubation, cells were treated with 1 uM FCCP/oligomycin for 6 hours, then analyzed via FACS for the presence of mitochondria in lysosomes (as determined by an emissions spectrum shift from the pH-sensitive mt-Keima tag).

[2] = test system: SKOV3 cells; test: In vitro mitosafety (glucose/galactose) assay; details: highest mito-safe dose = highest concentration at which gal/glc>0.80 (IC20) in SKOV3 cells, divided by mt-Keima EC50
Experimental: Briefly, SKOV3 cells (ATCC HTB-77) were plated in DMEM (Corning 10-013-CV) medium containing 25 mM glucose or DMEM with no glucose (Gibco 11966-025) supplemented with 10 mM galactose at 9,000 cells/well in 96 well plates (Corning costar 3610). 24 hrs later, compounds, in DMSO, were added at various concentrations to a final 0.1% DMSO for all wells. […] After a 15 minute incubation cellular ATP levels were read out using a Promega GloMax® DiscoverMicroplate Reader.
The ratio of relative CellTiter-Glo values from cells grown in galactose to cells grown in glucose was determined (gal/glc ratio). The gal/glc ratio vs concentration is then graphed, and non-linear regression is used to find the highest concentration of MTK compound at which gal/glc>0.80 (the “highest mito-safe dose”, or IC20).

[3] = HeLa MKYP cells, 16 hrs with compound, then 1 uM FCCP/oligomycin for 6 hours, FACS, read-out: EC50 in HeLa mt-Keima Mitophagy Assay

Compound	EC50 [1, 3] [nM]	EC50 ([1]; HeLa, refers to the table, read-out: EC50) [nM]	Mito-Safety Index (highest mito-safe dose/mt-Keima EC50) [2]
COCCO[C@H]1COc2cc(F)ccc2[C@@H]1Nc1ncnc2[nH]c(C(F)(F)F)cc12 [EP-0042288, N-[(3R,4S)-7-fluoro-3-(2-methoxyethoxy)chroman-4-yl]-6-(trifluoromethyl)-7H-pyrrolo[2,3-d]pyrimidin-4-amine]	397	–	40.57
COCC[C@H]1COc2ccccc2[C@@H]1Nc1ncnc2[nH]c(C(F)(F)F)cc12 [EP-0041252]	634	–	39.13
CC(C)(C#N)CC[C@@H]1COc2ccccc2[C@H]1Nc1ncnc2[nH]c(C3CC3)cc12 (relative stereo) [EP-0042291, 4-[trans-4-[(6-cyclopropyl-7H-pyrrolo[2,3-d]pyrimidin-4-yl)amino]chroman-3-yl]-2,2-dimethyl-butanenitrile]	78	–	64.67
CC(C)(O)CO[C@H]1COc2ccccc2[C@@H]1Nc1ncnc2[nH]c(C3CC3)cc12 [EP-0042541, 1-[(3R,4S)-4-[(6-cyclopropyl-7H-pyrrolo[2,3-d]pyrimidin-4-yl)amino]chroman-3-yl]oxy-2-methyl-propan-2-ol]	123	–	50.82
CC(C)CO[C@H]1COc2ccccc2[C@@H]1Nc1ncnc2[nH]c(C(F)(F)F)cc12 [EP-0043813, N-((3R,4S)-3-isobutoxychroman-4-yl)-6-(trifluoromethyl)-7H-pyrrolo[2,3-d]pyrimidin-4-amine]	170	–	147.1
COCC[C@@H]1COc2ccccc2[C@H]1Nc1ncnc2[nH]c(C(F)(F)F)cc12 (single isomer, unassigned) [EP-0041398, N-[trans-3-(2-methoxyethyl)chroman-4-yl]-6-(trifluoromethyl)-7H-pyrrolo[2,3-d]pyrimidin-4-amine]	356	–	43.54
FC(F)(F)c1cc2c(N[C@H]3CC4(CCCC4)Oc4ccccc43)ncnc2[nH]1 (single isomer, unassigned) [EP-0041356, N-spiro[chromane-2,1′-cyclopentane]-4-yl-6-(trifluoromethyl)-7H-pyrrolo[2,3-d]pyrimidin-4-amine]	414	–	60.24
COC(C)(C)CO[C@H]1COc2ccccc2[C@@H]1Nc1ncnc2[nH]c(C3CC3)cc12 [EP-0042538, 6-cyclopropyl-N-[(3R,4S)-3-(2-methoxy-2-methyl-propoxy)chroman-4-yl]-7H-pyrrolo[2,3-d]pyrimidin-4-amine]	30	< 0.03	51.11
COCCCC1COc2ccccc2C1Nc1ncnc2[nH]c(C(F)(F)F)cc12 (single isomer, unassigned) [EP-0041483, N-[3-(3-methoxypropyl)chroman-4-yl]-6-(trifluoromethyl)-7H-pyrrolo[2,3-d]pyrimidin-4-amine]	70	–	48.05
COCCCO[C@H]1COc2ccccc2[C@@H]1Nc1ncnc2[nH]c(C3CC3)cc12 [EP-0042529, 4,6-cyclopropyl-N-[(3R,4S)-3-(3-methoxypropoxy)chroman-4-yl]-7H-pyrrolo[2,3-d]pyrimidin-4-amine]	95	–	80.20
FC(F)(F)c1cc2c(NC3CC4(CCCC4)Oc4ccccc43)ncnc2[nH]1 (stereo not drawn) [EP-0041220]	608	–	41.11
COCCO[C@H]1COc2cc(F)ccc2[C@@H]1Nc1ncnc2[nH]c(C3CC3)cc12 [EP-0042287, 6-cyclopropyl-N-[(3R,4S)-7-fluoro-3-(2-methoxyethoxy)chroman-4-yl]-7H-pyrrolo[2,3-d]pyrimidin-4-amine]	180	–	38.56

More lines, main results first:

EC50 [1, 3] [nM]	EC50 ([1]; HeLa, refers to the table, read-out: EC50) [nM]	Compound	Mito-Safety Index (highest mito-safe dose/mt-Keima EC50) [2]
340	–	CC(C)CO[C@H]1COc2ccccc2[C@@H]1Nc1nccc2[nH]c(C(F)(F)F)cc12 [EP-0043866]	32.6
90	–	CC(C)(C#N)CCC1COc2ccccc2C1Nc1ncnc2[nH]c(C3CC3)cc12 (single isomer, unassigned) [EP-0042850, 4-[trans-4-[(6-cyclopropyl-7H-pyrrolo[2,3-d]pyrimidin-4-yl)amino]chroman-3-yl]-2,2-dimethyl-butanenitrile]	70.99
53	–	CC(C)(C#N)CO[C@@H]1COc2ccccc2[C@H]1Nc1ncnc2[nH]c(C3CC3)cc12 (stereo in doubt) [EP-0042976, 3-[(3S,4R)-4-[(6-cyclopropyl-7H-pyrrolo[2,3-d]pyrimidin-4-yl)amino]chroman-3-yl]oxy-2,2-dimethyl-propanenitrile]	302.16
468	–	CC(C)(O)CO[C@H]1COc2ccccc2[C@@H]1Nc1ncnc2[nH]c(C(F)(F)F)cc12 [EP-0042979, 2-methyl-1-[(3R,4S)-4-[[6-(trifluoromethyl)-7H-pyrrolo[2,3-d]pyrimidin-4-yl]amino]chroman-3-yl]oxy-propan-2-ol]	53.45
417	–	CC(C)(C#N)CO[C@H]1COc2ccccc2[C@@H]1Nc1ncnc2[nH]c(C(F)(F)F)cc12 [EP-0043230, 2,2-dimethyl-3-[(3R,4S)-4-[[6-(trifluoromethyl)-7H-pyrrolo[2,3-d]pyrimidin-4-yl]amino]chroman-3-yl]oxy-propanenitrile]	43.73
540	–	FC(F)(F)c1cc2c(N[C@H]3c4ccccc4OC[C@@H]3OCC3CC3)ncnc2[nH]1 [EP-0043810, N-((3R,4S)-3-(cyclopropylmethoxy)chroman-4-yl)-6-(trifluoromethyl)-7H-pyrrolo[2,3-d]pyrimidin-4-amine]	46.3
119	–	COC(C)(C)CO[C@H]1COc2ccccc2[C@@H]1Nc1ncnc2[nH]c(C(F)(F)F)cc12 [EP-0042655, N-[(3R,4S)-3-(2-methoxy-2-methyl-propoxy)chroman-4-yl]-6-(trifluoromethyl)-7H-pyrrolo[2,3-d]pyrimidin-4-amine]	38.50
510	–	CC(C)(F)CO[C@H]1COc2ccccc2[C@@H]1Nc1ncnc2[nH]c(C(F)(F)F)cc12 [EP-0043741, N-[(3R,4S)-3-(2-fluoro-2-methyl-propoxy)chroman-4-yl]-6-(trifluoromethyl)-7H-pyrrolo[2,3-d]pyrimidin-4-amine]	49.0
100	–	COC[C@]1(C)C[C@@H](Nc2ncnc3[nH]c(C(F)(F)F)cc23)c2ccccc2O1 (single isomer, unassigned) [EP-0043980]	73.0
930	–	CCO[C@H]1COc2ccccc2[C@@H]1Nc1ncnc2[nH]c(C(F)(F)F)cc12 [EP-0043811, N-((3R,4S)-3-ethoxychroman-4-yl)-6-(trifluoromethyl)-7H-pyrrolo[2,3-d]pyrimidin-4-amine]	26.9
280	–	FC(F)(F)c1cc2c(N[C@H]3c4ccccc4OC[C@@H]3OCC3COC3)ncnc2[nH]1 [EP-0043826, N-((3R,4S)-3-(oxetan-3-ylmethoxy)chroman-4-yl)-6-(trifluoromethyl)-7H-pyrrolo[2,3-d]pyrimidin-4-amine]	60.4 and 60.3
620	–	FC(F)(F)c1cc2c(N[C@H]3c4ccccc4OC[C@@H]3OCC3CCOC3)ncnc2[nH]1 (stereo partly drawn) [EP-0043842, N-((3R,4S)-3-((tetrahydrofuran-3-yl)methoxy)chroman-4-yl)-6-(trifluoromethyl)-7H-pyrrolo[2,3-d]pyrimidin-4-amine]	38.4
680	–	Fc1ccc2c(c1)OC[C@H](OCC1CC1)[C@H]2Nc1ncnc2[nH]c(C(F)(F)F)cc12 [EP-0043819, N-((3R,4S)-3-(cyclopropylmethoxy)-7-fluorochroman-4-yl)-6-(trifluoromethyl)-7H-pyrrolo[2,3-d]pyrimidin-4-amine]	36.7
